Data reported in US10759994B2, “Luminogenic transition metal-based pyridyl complex and its use” (City University of Hong Kong, priority 2016, dated 2020).

Legend:
[1] = Photophysical data (emission wavelength, lifetime, quantum yield); format: physicochemical
Method: Electronic absorption spectra were recorded on an Agilent 8453 diode array spectrophotometer. Steady-state emission spectra were recorded on a HORIBA JOBIN YVON Fluorolog TCSPC spectrofluorometer. Unless specified otherwise, all solutions for photophysical studies were degassed with no fewer than four successive freeze-pump-thaw cycles and stored in a 10-cm^3 round bottomed flask equipped with a side-arm 1-cm fluorescence cuvette and sealed from the atmosphere by a Rotaflo HP6/6 quick-release Teflon stopper. Luminescence quantum yields were measured by the optically dilute method (Demas, J. N. and Crosby, G. A., J. Phys. Chem. 1971, 75, 991) using an aerated aqueous solution of [Ru(bpy)3]Cl2 (ϕem=0.028, λex=455 nm) as the standard solution (Wallace, L. and Rillema, D. P., Inorg. Chem., 1993, 32, 3836). The concentrations of the standard and sample solutions were adjusted until the absorbance at 455 nm was 0.1. The emission lifetimes were measured on a HORIBA JOBIN YVON Fluorolog TCSPC spectrofluorometer in the Fast MCS lifetime mode with a NanoLED N-375 as the excitation source.
The very low emission quantum yield of complexes 1a-5b compared with other related iridium(III) and ruthenium(II) systems are expected to be due to quenching by the nitrone moiety.
In particular, the emission quantum yields of the iridium(III) complexes 1a, 2a and 3a (ϕem<0.021; Table 1) were much lower than those of common cyclometalated iridium(Ill) polypyridyl complexes (Li, S. P.-Y. et al., Chem. Eur. J. 2010, 16, 8329; Li, S. P.-Y. et al., Biomaterials 2013, 34, 7519; Lo, K. K.-W. et al., Chem. Commun. 2013, 49, 4271) which is expected to be a consequence of efficient quenching associated with isomerization of the C═N group.

[2] = test system: HeLa cells; test: LSCM imaging of bioorthogonal labeling of BCN-C10 in HeLa cells; format: cell-based; settings: for Subcellular structure stained / Staining pattern over time: BCN-C10-pretreated HeLa cells; for Intracellular emission with BCN-C10 pretreatment: HeLa cells, BCN-C10 200 μM 1 h, λex=488 nm; for Intracellular emission with BCN-C10 pretreatment / Staining pattern over time: complex 40 μM
Source text: (“1 b”, “2b”, “3b”, “4b”, and “5b” indicate the complexes of the present invention; “—BCN-C10” means BCN-C10-untreated HeLa cells; “+BCN-C10” means BCN-C10-pretreated HeLa cells).
(“2b” and “5b” indicate the complexes of the present invention; “—BCN-C10” means BCN-C10-untreated HeLa cells; “+BCN-C10” means BCN-C10-pretreated HeLa cells).
The bioorthogonal labeling properties of complexes 1a-5b were investigated using CHO-K1 or HeLa cells with or without pretreatment of an exogenous molecule BCN-010, i.e., a BCN-modified decane molecule. The intracellular distribution of BCN-C10 was then imaged using laser scanning confocal microscopy (LSCM).
In the study of the ruthenium(II) nitrone complexes, live HeLa cells were treated with BCN-C10 (200 μM) for 1 h, thoroughly washed with PBS, then incubated with complexes 1b-5b (40 μM) for 12 h, and finally imaged by LSCM. More specifically, HeLa cells were incubated in growth medium/DMSO (99:1, v/v) containing BCN-C10 (200 μM) in the dark at 37° C. under a 5% CO2 atmosphere for 1 h. After treatment, the medium was removed, the cells were washed thoroughly with PBS (1 mL×3), and then incubated in growth medium/DMSO (99:1, v/v) containing the ruthenium(II) complex (40 μM) in the dark at 37° C. under a 5% CO2 atmosphere. After incubation for 3, 6, 12, or 24 h, the culture medium was removed and the cell was were washed with PBS (1 mL×3). The coverslip was mounted onto a sterilized glass slide and then imaging was performed using a Leica TCS SPE confocal microscope with an oil immersion 63× objective len and an excitation wavelength at 488 nm. […] Additionally, BCN-C10-pretreated cells were incubated with complexes 2b and 5b for different time periods (3, 6, 12, and 24 h) (FIG. 6). […] The regioselective staining is assumed to be closely related to the subcellular distribution of BCN-C10, and the lipophilicity and reactivity of the complexes.

[3] = biological target: T1, unmodified BSA (Bos taurus, UniProt P02769); test: Emission enhancement with unmodified BSA (negative control); format: biochemical, Bovine; settings: complex 10 μM, protein 3.78 μM, aerated potassium phosphate buffer (50 mM, pH 7.4)/DMSO (99:1, v/v), 298 K
T1 construct: purchased Calbiochem
T1 sequence (P02769 25-607): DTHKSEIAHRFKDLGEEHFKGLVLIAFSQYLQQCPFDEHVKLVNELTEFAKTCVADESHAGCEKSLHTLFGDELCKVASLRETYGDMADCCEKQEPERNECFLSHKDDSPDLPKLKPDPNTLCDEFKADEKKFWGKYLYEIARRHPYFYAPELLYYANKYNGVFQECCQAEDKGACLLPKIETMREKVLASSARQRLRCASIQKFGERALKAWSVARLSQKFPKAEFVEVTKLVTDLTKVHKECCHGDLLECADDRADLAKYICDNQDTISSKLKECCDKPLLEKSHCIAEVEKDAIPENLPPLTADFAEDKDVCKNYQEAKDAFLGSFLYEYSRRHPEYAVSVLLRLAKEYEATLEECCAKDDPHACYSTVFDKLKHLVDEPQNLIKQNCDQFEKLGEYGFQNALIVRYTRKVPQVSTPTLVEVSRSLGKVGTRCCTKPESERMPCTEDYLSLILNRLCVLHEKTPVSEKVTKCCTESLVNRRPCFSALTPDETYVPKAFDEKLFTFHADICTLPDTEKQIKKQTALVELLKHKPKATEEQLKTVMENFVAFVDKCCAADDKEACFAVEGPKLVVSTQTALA

[4] = SPANC reaction kinetics with BCN—OH by UV/Vis absorption spectroscopy; format: physicochemical; settings: for Second-order rate constants (k2): reaction with BCN—OH in MeOH at 298 K
Method: The reactivity of the iridium(III) and ruthenium(II) pyridyl complexes toward a strained alkyne derivative BCN—OH in MeOH at 298 K was studied. The second-order rate constants (k2) of the strain-promoted alkyne-nitrone cycloaddition (SPANC) reaction of complexes 1a-5b are shown in Tables 3 and 4, respectively. The k2 values of the iridium(III) complexes 1a, 2a and 3a and the ruthenium(II) complexes 1b, 2b, 3b, 4b, and 5b were determined to be 0.116-0.238 and 0.078-3.06 M^−1 s^−1, respectively, which are about 1.95-76.5 times that of the free ligand bpy-nitrone-Me (k2=0.040 M^−1 s^−1). This is attributed to the electron-withdrawing effects of the positively-charged metal centers. […] The accelerated reaction kinetics is assumed to originate from the presence of the more electron-withdrawing phenyl ring at the N-position of the nitrone moiety. Thus, the accelerated reaction kinetics render complexes 1a-5b highly advantageous bioorthogonal probes for biomolecules modified with a strained alkyne moiety.
More specifically, the SPANC reaction kinetics of complexes 1a 5b was studied by UV/Ms absorption spectroscopy. For the ligand bpy-nitrone-Me and the iridium(III) complexes 1a-3a, the k2 values were measured under pseudo first order conditions with a 25- to 100-fold excess of BCN—OH in MeOH at 298 K. The reaction process was followed by monitoring the exponential decay of the absorbance at 306-342 nm upon addition of BCN—OH. The final concentrations of the nitrone compounds were 10 μM and those of BCN—OH ranged from 0.25 to 1.0 mM. For the ruthenium(II) complexes 1b-5b, the k2 values were determined under pseudo first order conditions with a 50- to 200-fold excess of BCN—OH in MeOH at 298 K. The reaction process was monitored by following the exponential decay of the absorbance at 329 nm. The final concentrations of the complexes were 10 μM and those of BCN—OH ranged from 0.5 to 2.0 mM. The data were fitted to a single-exponential equation to give the observed rate constants (kobs), which were plotted against the concentrations of BCN—OH to obtain the k2 from the slope of the plots.

[5] = Potassium phosphate buffer (50 mM, pH 7.4)/DMSO (9:1, v/v), 298 K
[6] = Potassium phosphate buffer (50 mM, pH 7.4)/MeOH (4:1, v/v), 298 K

Row | SMILES | Φem ([1]; CH2Cl2, 298 K) | τo ([1]; CH2Cl2, 298 K) | Φem ([1]; MeOH, 298 K) | λem ([1]; MeOH, 298 K) | τo ([1]; MeOH, 298 K) | Φem [1, 5] | λem [1, 5] | τo [1, 5] | Subcellular structure stained [2] | Intracellular emission with BCN-C10 pretreatment ([2]; 12 h) | I/Io BSA [3] | Second-order rate constants (k2) [4] | Φem [1, 6] | λem [1, 6] | τo [1, 6] | Staining pattern over time ([2]; 6 h) | Staining pattern over time ([2]; 12 h) | Staining pattern over time ([2]; 24 h) | k2 relative to those of the N-methyl nitrone complexes 1b, 2b, 3b and 4b ([4]; BCN—OH in MeOH at 298 K)
1 | Cc1ccnc(-c2cc(/C=[N+](/C)[O-])ccn2)c1.F[P-](F)(F)(F)(F)F.F[P-](F)(F)(F)(F)F.[Ru+2].c1ccc(-c2ccccn2)nc1.c1ccc(-c2ccccn2)nc1 [Complex 1b] | 0.006 | 1.20 μs | 0.006 | 609 nm | 0.94 μs | 0.004 | 611 nm | 0.64 μs | punctate cell surface staining | weak but enhanced emission | 1.1 | 0.084 ± 0.005 M⁻¹ s⁻¹ |  |  |  |  |  |  | 
2 | Cc1ccnc(-c2cc(/C=[N+](\[O-])c3ccccc3)ccn2)c1.F[P-](F)(F)(F)(F)F.F[P-](F)(F)(F)(F)F.[Ru+2].c1ccc(-c2ccccn2)nc1.c1ccc(-c2ccccn2)nc1 [Complex 5b] |  |  | 0.015 | 608 nm | 0.63 μs |  |  |  | cell membrane staining | intense subcellular staining | 1.1 |  | 0.006 | 610 nm | 0.69 μs | selectively lighted up the cell surface | intense cell membrane staining plus some sharp vesicles in the cytoplasmic regions adjacent to cell membrane | intense granular staining in the cytoplasm | at least 36 fold
3 | CCCCNC(=O)c1ccnc(-c2cc(C(=O)NCCCC)ccn2)c1.CCCCNC(=O)c1ccnc(-c2cc(C(=O)NCCCC)ccn2)c1.Cc1ccnc(-c2cc(/C=[N+](/C)[O-])ccn2)c1.F[P-](F)(F)(F)(F)F.F[P-](F)(F)(F)(F)F.[Ru+2] [Complex 2b] | 0.013 | 1.68 μs | 0.006 | 647 nm | 0.98 μs | 0.003 | 650 nm | 0.52 μs | cell membrane staining | intense subcellular staining | 1.1 | 0.086 ± 0.005 M⁻¹ s⁻¹ |  |  |  | selectively lighted up the cell surface | intense cell membrane staining plus some sharp vesicles in the cytoplasmic regions adjacent to cell membrane | intense granular staining in the cytoplasm | 
